# Entries after “also recorded” stand apart in the source; their conditions may differ.
# Tests used:
# Format in all cases: cell-based, human
# LC3-II = assay: Autophagy induction assay (LC3-II/LC3-I ratio by western blot); details: SH-SY5Y cells; for LC3-II expression: treatment with astersaponin I
# Description: Protein markers contained in lysates of the SH-SY5Y cells and brain tissue of the mice (SNpc and ST) were measured by western blot analysis. Briefly, after determining a concentration, a protein sample (20 μg) was separated by 8%, 10%, or 15% sodium dodecyl sulfate-polyacrylamide gel electrophoresis (SDS-PAGE). Then, proteins separated on the gel were transferred to a polyvinylidene fluoride (PVDF) membrane for 45 minutes using a Trans-Blot Turbo Transfer System (Bio-Rad, USA). The membrane was washed with tris-buffered saline with 0.1% Tween 20, TBST) for 5 minutes and then blocked by 5% skim milk dissolved in a TBST buffer. The membrane was further incubated with monoclonal primary antibodies derived from rabbits (anti-GAPDH, anti-AMPK, anti-p-AMPK, anti-ULK, anti-p-ULK555, anti-Erk, anti-p-Erk, anti-mTOR, anti-p-mTOR, anti-LC3B, anti-TH, and anti-α-synuclein antibodies). The primary antibodies were diluted in a blocking buffer at a ratio of 1:1000 and incubated overnight at 4° C. On the second day, the membrane was washed with TBST three times (10 minutes each) and incubated at room temperature in a horseradish peroxidase-conjugated goat anti-rabbit IgG secondary antibody (diluted in a blocking buffer at a ratio of 1:2000). After incubating in the secondary antibody for 1 hour, the membrane was washed for 30 minutes. The protein blots on the membrane were developed using an ECL detection kit and visualized using an LAS-4000 mini system (Fujifilm, Japan). The intensity of the protein blots was quantified using Multi Gauge software (Fujifilm, Japan).
# To investigate the autophagy inducing effect of A. koraiensis, human neuroblastoma (SH-SY5Y) cells were cultivated in 6-well plates at a density of 8×10^5 cells/well in 2 mL DMEM medium (Gibco) at 37° C. in a humidified atmosphere with 5% CO2. […] The protein expression of LC3-II in cell lysates was measured using western blot analysis. […] The immune blots were visualized using an ECL detection kit and analyzed using a LAS-4000 mini system (Fujifilm).
# [1] = tested on: autophagy-related protein markers (LC3-II, p62, p-AMPK, p-Erk, p-ULK, p-mTOR) in SH-SY5Y cells; assay: Western blot of autophagy-related protein markers in SH-SY5Y cells
# Description: (§1) Human neuroblastoma (SH-SY5Y) cells were purchased from the American Type Culture Collection (Manassas, Va., USA) and cultured in DMEM supplemented with 10% heat-inactivated FBS and 1% penicillin/streptomycin. The SH-SY5Y cells were cultured at 37° C. in a humid atmosphere containing 5% CO2. […] The SH-SY5Y cells were transfected with AMPK siRNA and then administered with AKNS-2 at 36 hours after siRNA transfection. […] After 24 hours from treatment with the samples, the SH-SY5Y cells were recovered and used for subsequent analysis. At 24 hours after drug treatment, the culture medium was removed from the 6-well plate, and the cells were gently washed once with cold saline. Subsequently, 1 mL of cold saline was added to each well, and cells attached to the bottom were floated by rubbing the bottom with a 1 mL pipette. The suspension was collected in a 1.5 mL tube and centrifuged at 4° C. at 13000×g for 5 minutes. After removing a supernatant, 50 μL of a RIPA lysis buffer including a protease inhibitor cocktail (Roche, Mannheim, Germany) and purchased from Cell Signaling Technology (Danvers, Mass., USA) was added to the cell pellet. After shaking the mixture at 4° C. for 30 minutes, the obtained cells were centrifuged at 4° C. at 13000×g for 20 minutes. A supernatant was collected therefrom, and a concentration of proteins was measured using a standard curve constructed using BSA by the Bradford method. Then, the supernatant was diluted with a loading buffer and heated at 99° C. for 5 minutes. Resultant cells were used in a subsequent western blot analysis. Protein markers contained in lysates of the SH-SY5Y cells and brain tissue of the mice (SNpc and ST) were measured by western blot analysis. Briefly, after determining a concentration, a protein sample (20 μg) was separated by 8%, 10%, or 15% sodium dodecyl sulfate-polyacrylamide gel electrophoresis (SDS-PAGE). Then, proteins separated on the gel were transferred to a polyvinylidene fluoride (PVDF) membrane for 45 minutes using a Trans-Blot Turbo Transfer System (Bio-Rad, USA). […] The membrane was further incubated with monoclonal primary antibodies derived from rabbits (anti-GAPDH, anti-AMPK, anti-p-AMPK, anti-ULK, anti-p-ULK555, anti-Erk, anti-p-Erk, anti-mTOR, anti-p-mTOR, anti-LC3B, anti-TH, and anti-α-synuclein antibodies). The primary antibodies were diluted in a blocking buffer at a ratio of 1:1000 and incubated overnight at 4° C. On the second day, the membrane was washed with TBST three times (10 minutes each) and incubated at room temperature in a horseradish peroxidase-conjugated goat anti-rabbit IgG secondary antibody (diluted in a blocking buffer at a ratio of 1:2000). After incubating in the secondary antibody for 1 hour, the membrane was washed for 30 minutes. The protein blots on the membrane were developed using an ECL detection kit and visualized using an LAS-4000 mini system (Fujifilm, Japan). The intensity of the protein blots was quantified using Multi Gauge software (Fujifilm, Japan).
# [2] = tested on: LC3, p62, TH and α-synuclein in SH-SY5Y cells; assay: Western blot of LC3, p62, TH and α-synuclein in MPP^+-treated SH-SY5Y cells (in vitro PD model)
# Description: as §1
# [3] = AKNS-2 5 μM and 10 μM, vs control
smiles,measurement,setting,value
"C[C@@H]1O[C@@H](O[C@@H]2[C@@H](O)[C@H](O[C@@H]3[C@@H](O[C@@H]4OC[C@@H](O)[C@H](O)[C@H]4O)[C@@H](O)[C@H](O[C@H]4[C@H](OC(=O)[C@]56CCC(C)(C)C[C@H]5C5=CC[C@@H]7[C@@]8(C)C[C@H](O)[C@H](O[C@@H]9O[C@H](CO)[C@@H](O)[C@H](O[C@@H]%10OC[C@@H](O)[C@H](O)[C@H]%10O)[C@H]9O)[C@@](C)(CO)[C@@H]8CC[C@@]7(C)[C@]5(C)C[C@H]6O)OC[C@H](O)[C@@H]4O)O[C@H]3C)OC[C@H]2O)[C@H](O)[C@H](O)[C@H]1O [Compound 1, 3-O-β-D-xylopyranosyl-(1→3)-β-D-glucopyranosylpolygalacic acid 28-O-α-L-rhamnopyranosyl-(1→3)-β-D-xylopyranosyl-(1→4)-[β-D-xylopyranosyl-(1→3)]-α-L-rhamnopyranosyl-(1→2)-α-L-arabinopyranosyl ester]",LC3-II/LC3-I ratio,"LC3-II; 24 hours, 5 μM, 10 μM and 20 μM",increase in the LC3-II/LC3-I ratio in a dose-dependent manner
same,LC3-II expression,LC3-II,significantly increasing the expression
same,LC3-II expression,LC3-II; listed as astersaponin I,up-regulated LC3-II expression in a dose-dependent manner
same,expression level of p-Erk,"[1]; 24 hours, 10 μM and 20 μM",the expression level of p-Erk significantly increased
same,expression of p-mTOR,"[1]; 24 hours, 10 μM and 20 μM",The expression of p-mTOR was inhibited
same,expression level of p-AMPK,"[1]; 24 hours, 5, 10 and 20 μM",the expression levels of p-AMPK and p-ULK significantly increased
same,expression level of p-ULK,"[1]; 24 hours, 5, 10 and 20 μM",the expression levels of p-AMPK and p-ULK significantly increased
same,expression of LC3-II,"[1]; 24 hours, 5, 10 and 20 μM","induced the expression of LC3-II, which is an important autophagy marker, in a dose-dependent manner"
same,expression level of LC3-II,"[1]; AKNS-2 5 μM and 10 μM, 24 hours, vs control",The expression level of LC3-II was significantly increased
same,expression level of p-Erk,[1]; [3],significantly increased expression levels of p-Erk
same,expression of p-AMPK,[1]; [3],Significantly increased expression
same,expression of p-ULK555,[1]; [3],significantly increased expression of p-ULK555
same,expression level of LC3-II,[1]; AKNS-2 10 μM alone,significantly increased the expression level of LC3-II
same,expression of p62,[1]; AKNS-2 10 μM alone,induced a significant decrease in expression of p62
same,expression of p-mTOR,"[1]; AKNS-2 10 μM, vs control",significantly inhibited the expression p-mTOR
same,expression of p-mTOR,"[1]; AKNS-2 (5 μM and 10 μM), AMPK siRNA experiment, normal cells",significantly inhibited the expression of p-mTOR
same,expression of TH,[2]; AKNS-2 (5 μM and 10 μM) + 2 mM MPP^+ vs MPP^+ alone,the MPP^+-induced decrease in expression of TH was reversed; also recorded: the decreased expression of TH may be restored; also recorded: offset toxicity of MPP^+ and reversed the expression of TH
same,expression of α-synuclein,[2]; AKNS-2 + 2 mM MPP^+ vs MPP^+ alone,canceled out the effects of MPP^+ and inhibited the expression of α-synuclein; also recorded: the increased expression level of α-synuclein was decreased

# Reference: patent US12234257B2, “Triterpene saponin derivative and use thereof” (KOREA INSTITUTE OF SCIENCE AND TECHNOLOGY, priority 2020, dated 2025)
